These results are taken from ChEMBL document CHEMBL5230155, “Recent contributions of quinolines to antimalarial and anticancer drug discovery research” (Eur J Med Chem, 2021).

Molecules are shown by their SMILES. Converted amounts (≈) assume the structure as drawn.

Data set [1] deals with Plasmodium falciparum. As to the kind of experiment: Antimalarial activity against CQ-resistant Plasmodium falciparum RKL9. It counts as functional, organism-based.
Data set [2] relates to Plasmodium berghei. As to the kind of experiment: Antiplasmodial activity against Plasmodium berghei infected in mouse assessed as reduction in parasitaemia at 200 mg/kg/day, ip administered for 4 days. Type of data set: functional. On the set-up: scale not given: the % may be the effect or the level left. The following applies: time 4 day.
Data set [3] has as its system Plasmodium falciparum. As to the kind of experiment: Antimalarial activity against CQ-sensitive Plasmodium falciparum 3D7. Type of data set: functional, organism-based.
Data set [4] deals with MV4-11. As to the kind of experiment: Antiproliferative activity against human MV4-11 cells. It counts as functional, cell-based.
Data set [5] concerns the target Histone-lysine N-methyltransferase, H3 lysine-79 specific (Homo sapiens, UniProt Q8TEK3). In words: Inhibition of DOT1L (unknown origin).
Data set [6] relates to A549. In words: Cytotoxicity against human A549 cells. It counts as functional, cell-based.
Data set [7] addresses Phosphatidylinositol 4,5-bisphosphate 3-kinase catalytic subunit gamma isoform (Homo sapiens, UniProt P48736). In words: Inhibition of PI3K gamma (unknown origin).
Data set [8] has as its system K562. In words: Cytotoxicity against human K562 cells. It counts as functional, cell-based.
For data set [9], the system named is MCF7. In words: Antiproliferative activity against mitoxantrone resistant human MCF7 cells. It counts as functional, cell-based.
Data set [10] has as its system MCF7. As to the kind of experiment: Antiproliferative activity against human MCF7 cells. It counts as functional, cell-based. The conditions noted are these: Homo sapiens, MCF7.
The test system of data set [11] is A2780. In words: Antiproliferative activity against cisplatin resistant human A2780 cells. Type of data set: functional, cell-based.
The test system of data set [12] is A2780. In words: Antiproliferative activity against human A2780 cells. It counts as functional, cell-based.
A short description of data set [13]: Antiproliferative activity against HUVEC cells. Type of data set: toxicity, cell-based. The following applies: human.
Data set [14] concerns HeLa. In words: Cytotoxicity against human HeLa cells at 2.5 uM. Type of data set: functional.
In data set [15] the test system is Hemozoin. As to the kind of experiment: Inhibition of beta-hematin formation. The conditions noted are these: for inhibition: concentration not given here.
For data set [16], the system named is Plasmodium berghei. In words: Antimalarial activity against Plasmodium berghei ANKA infected in mouse assessed increase in survival time (reference value: 6.8 day). Type of data set: functional.
The subject of data set [17] is KG-1a. As to the kind of experiment: Antiproliferative activity against human KG-1a cells. It counts as functional, cell-based.
For data set [18], the system named is HeLa. In words: Antiproliferative activity against human HeLa cells. It counts as functional, cell-based.
The test system of data set [19] is MDA-MB-231. In words: Antiproliferative activity against human MDA-MB-231 cells. It counts as functional, cell-based.
In data set [20] the test system is A-375. As to the kind of experiment: Antiproliferative activity against human A-375 cells. Type of data set: functional, cell-based.
Data set [21] deals with HT-29. In words: Antiproliferative activity against human HT-29 cells. Type of data set: functional, cell-based.
For data set [22], the system named is PANC-1. As to the kind of experiment: Antiproliferative activity against human PANC-1 cells. It counts as functional, cell-based.
Data set [23] relates to NCI-H460. As to the kind of experiment: Antiproliferative activity against human NCI-H460 cells. It counts as functional, cell-based.
In data set [24] the test system is MIA PaCa-2. As to the kind of experiment: Antiproliferative activity against human MIA PaCa-2 cells. It counts as functional, cell-based.
For data set [25], the system named is Plasmodium berghei. As to the kind of experiment: Antiplasmodial activity against Plasmodium berghei infected in mouse assessed as reduction in parasitaemia at 35 umol/kg, sc administered for 4 days. It counts as functional. Also on record: scale not given: the % may be the effect or the level left. The following applies: dose 35 µmol/kg, time 4 day.
Data set [26] deals with Plasmodium berghei. In words: Antiplasmodial activity against Plasmodium berghei infected in mouse assessed as reduction in parasitaemia at 105 umol/kg, po. The following applies: dose 105 µmol/kg. On the set-up: scale not given: the % may be the effect or the level left. It counts as functional.
The subject of data set [27] is Plasmodium berghei. As to the kind of experiment: Inhibition of hemozoin formation in Plasmodium berghei infected in mouse. It counts as functional.
Data set [28] has as its system Plasmodium berghei. In words: Antiplasmodial activity against Plasmodium berghei infected in mouse assessed as increase in mean survival time at 100 mg/kg, po administered for 3 days (reference value: 7.6 day). Type of data set: functional. The following applies: time 3 day.
For data set [29], the system named is Plasmodium falciparum. In words: Antimalarial activity against CQ-resistant Plasmodium falciparum W2. It counts as functional, organism-based.
The subject of data set [30] is Plasmodium falciparum. In words: Antimalarial activity against CQ-sensitive Plasmodium falciparum D6. Type of data set: functional, organism-based.
For data set [31], the system named is Hep 3B2. In words: Cytotoxicity against human Hep3B cells assessed as relative value at 15 uM after 48 hrs by MTS method. It counts as functional.
Data set [32] has as its system Hep 3B2. In words: Cytotoxicity against human Hep3B cells. Type of data set: functional, cell-based.
Data set [33] in a line: Cytotoxicity against human SLMT-1 cells.
The test system of data set [34] is MDA-MB-231. As to the kind of experiment: Cytotoxicity against human MDA-MB-231 cells. Type of data set: functional, cell-based.
Data set [35] concerns Raji. As to the kind of experiment: Cytotoxicity against human Raji cells. It counts as functional, cell-based.
The subject of data set [36] is PC-3. As to the kind of experiment: Antiproliferative activity against human PC-3 cells. Type of data set: functional, cell-based.
In data set [37] the test system is KG-1. In words: Cytotoxicity against human KG-1 cells. Type of data set: functional, cell-based.
Data set [38] has as its system Plasmodium falciparum. In words: Selectivity index, ratio of IC50 for Chloroquine resistant Plasmodium falciparum W2 to IC50 for Chloroquine sensitive Plasmodium falciparum 3D7. It counts as functional.

Usually IC50 stands for the concentration needed to halve the response being measured. By inhibition is commonly meant the percentage by which the read-out fell short of the control.

Sequence of Phosphatidylinositol 4,5-bisphosphate 3-kinase catalytic subunit gamma isoform (P48736 whole entry, canonical isoform): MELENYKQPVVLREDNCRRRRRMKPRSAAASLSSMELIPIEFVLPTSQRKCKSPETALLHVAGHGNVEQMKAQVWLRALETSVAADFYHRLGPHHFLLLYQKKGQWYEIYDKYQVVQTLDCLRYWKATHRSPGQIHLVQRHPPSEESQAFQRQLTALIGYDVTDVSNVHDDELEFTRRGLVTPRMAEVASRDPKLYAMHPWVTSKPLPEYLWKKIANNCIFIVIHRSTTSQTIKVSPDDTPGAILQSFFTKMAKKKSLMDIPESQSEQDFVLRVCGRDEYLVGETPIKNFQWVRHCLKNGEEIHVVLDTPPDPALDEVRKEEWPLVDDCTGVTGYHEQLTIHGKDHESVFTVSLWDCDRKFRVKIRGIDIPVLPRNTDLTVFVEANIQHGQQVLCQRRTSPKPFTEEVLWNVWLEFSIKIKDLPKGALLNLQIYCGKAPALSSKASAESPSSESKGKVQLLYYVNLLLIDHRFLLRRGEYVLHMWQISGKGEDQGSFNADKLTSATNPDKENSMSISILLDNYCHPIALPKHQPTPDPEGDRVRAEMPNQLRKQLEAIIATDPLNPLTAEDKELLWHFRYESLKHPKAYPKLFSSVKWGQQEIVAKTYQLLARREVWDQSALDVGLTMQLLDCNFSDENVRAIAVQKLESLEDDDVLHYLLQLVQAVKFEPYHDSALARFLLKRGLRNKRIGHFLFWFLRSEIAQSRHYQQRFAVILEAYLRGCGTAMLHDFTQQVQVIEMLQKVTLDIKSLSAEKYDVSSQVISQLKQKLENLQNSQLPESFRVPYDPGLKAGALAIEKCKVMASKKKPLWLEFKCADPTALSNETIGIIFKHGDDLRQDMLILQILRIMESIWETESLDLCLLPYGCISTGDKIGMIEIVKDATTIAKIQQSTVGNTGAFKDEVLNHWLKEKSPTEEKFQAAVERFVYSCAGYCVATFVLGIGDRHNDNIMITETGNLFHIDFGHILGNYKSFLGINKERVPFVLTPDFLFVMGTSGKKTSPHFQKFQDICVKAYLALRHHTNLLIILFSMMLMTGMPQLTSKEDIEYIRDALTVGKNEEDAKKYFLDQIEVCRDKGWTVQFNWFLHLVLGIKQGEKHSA
Sequence of Histone-lysine N-methyltransferase, H3 lysine-79 specific (Q8TEK3 whole entry): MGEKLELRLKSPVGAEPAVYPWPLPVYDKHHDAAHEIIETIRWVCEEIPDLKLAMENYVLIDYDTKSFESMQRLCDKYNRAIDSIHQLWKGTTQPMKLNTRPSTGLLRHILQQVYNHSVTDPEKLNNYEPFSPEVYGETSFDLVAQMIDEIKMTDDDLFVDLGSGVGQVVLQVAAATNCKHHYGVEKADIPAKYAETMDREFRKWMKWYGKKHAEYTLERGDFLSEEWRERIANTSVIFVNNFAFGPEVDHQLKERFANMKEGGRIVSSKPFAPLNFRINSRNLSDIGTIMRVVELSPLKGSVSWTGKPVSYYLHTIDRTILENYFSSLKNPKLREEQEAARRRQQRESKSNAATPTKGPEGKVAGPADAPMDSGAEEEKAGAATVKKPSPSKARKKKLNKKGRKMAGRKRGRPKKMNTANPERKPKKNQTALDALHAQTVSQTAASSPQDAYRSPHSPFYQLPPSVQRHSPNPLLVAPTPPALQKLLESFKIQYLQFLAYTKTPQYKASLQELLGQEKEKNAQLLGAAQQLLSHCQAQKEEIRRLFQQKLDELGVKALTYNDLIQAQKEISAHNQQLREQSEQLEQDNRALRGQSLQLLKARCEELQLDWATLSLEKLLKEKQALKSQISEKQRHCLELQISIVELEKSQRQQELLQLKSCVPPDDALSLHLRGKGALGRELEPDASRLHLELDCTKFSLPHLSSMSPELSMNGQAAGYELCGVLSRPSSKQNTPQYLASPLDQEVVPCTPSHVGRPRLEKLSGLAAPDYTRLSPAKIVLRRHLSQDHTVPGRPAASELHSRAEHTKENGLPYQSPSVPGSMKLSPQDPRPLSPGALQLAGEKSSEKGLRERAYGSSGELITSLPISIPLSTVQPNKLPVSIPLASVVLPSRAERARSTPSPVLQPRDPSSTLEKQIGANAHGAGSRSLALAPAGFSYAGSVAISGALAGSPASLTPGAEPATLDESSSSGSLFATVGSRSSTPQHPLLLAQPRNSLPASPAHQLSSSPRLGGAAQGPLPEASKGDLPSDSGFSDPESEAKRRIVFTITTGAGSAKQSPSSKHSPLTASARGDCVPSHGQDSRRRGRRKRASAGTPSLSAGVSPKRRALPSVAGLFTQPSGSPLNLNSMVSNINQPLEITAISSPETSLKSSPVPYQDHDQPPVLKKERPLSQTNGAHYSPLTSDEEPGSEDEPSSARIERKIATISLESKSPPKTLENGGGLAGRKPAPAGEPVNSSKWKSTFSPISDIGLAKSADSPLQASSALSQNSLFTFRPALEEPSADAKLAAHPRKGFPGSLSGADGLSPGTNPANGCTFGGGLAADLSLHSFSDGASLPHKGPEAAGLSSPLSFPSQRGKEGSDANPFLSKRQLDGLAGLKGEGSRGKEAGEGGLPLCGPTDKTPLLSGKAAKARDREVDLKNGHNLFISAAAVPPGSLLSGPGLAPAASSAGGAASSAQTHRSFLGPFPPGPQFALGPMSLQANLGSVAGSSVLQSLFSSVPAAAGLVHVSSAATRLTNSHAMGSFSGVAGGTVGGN

Regarding `Cc1ccc(/C=C2/SC(c3ccc(Cl)cc3)N(Nc3cc(C)c4ccccc4n3)C2=O)cc1` (centres undefined), the IC50 in data set [1] is 0.824 µg/mL (≈ 1.75 µM); in [3], 0.423 µg/mL. In data set [2], the Activity is given as 73.4%.
Turning to `Cc1cc(Nc2ccc3nc(C)cc(N)c3c2)nc(NCCCCCCNC(=O)Nc2cc(C(F)(F)F)cc(C(F)(F)F)c2)n1`, the values for the IC50 in data set [4] and in data set [5] were 1290 nM and 3550 nM, respectively.
For the compound `COc1ccc(-c2cc(C(=O)N/N=C(\C=C\c3ccc(Cl)cc3)c3ccc(N)cc3)c3ccccc3n2)cc1`, the IC50 in data set [6] stood at 1910 nM; in data set [7], 52 nM; in [8], 1910 nM.
On to `COc1ccc(Nc2cc(/C=C/c3ccc([N+](=O)[O-])cc3)nc3cc(OC)c(OC)c(OC)c23)cc1OC`, for which the IC50 in data set [9] was 1130 nM; in data set [10], 1130 nM; in [11], 1130 nM; in data set [12], 1130 nM; in data set [13], 7820 nM.
`COc1cc2nc(N3CCCN(C)CC3)nc(NC3CCN(Cc4ccccc4)CC3)c2cc1OC` registered an Activity in data set [14] of 63%.
Consider `COC(=O)[C@@H](NC(=O)CSc1ccnc2cc(Cl)ccc12)C(C)C`, for which the inhibition in data set [15] stood at 61.1%. The compound further yielded a Time in data set [16] of 24.6 days.
Consider `COc1ccc2nc(-c3ccc(Br)cc3)cc(-c3nnc(Nc4ccc([N+](=O)[O-])cc4)o3)c2c1`, for which the IC50 in [17] came to 1210 nM; in data set [18], 50 nM; in data set [19], 540 nM.
In the case of `COc1ccc(/C=C\c2cc(OC)c(OC)c(OC)c2)cc1O` [COMBRETASTATIN A4], the IC50 was 180 nM in data set [20]; 180 nM in data set [21]; 180 nM in [22]; 180 nM in data set [23]; 180 nM in data set [24]; 1560 nM in data set [13].
For the compound `C[C@@H]1CCC2[C@@H](C)[C@H](OC(=O)CCC(=O)OCCNc3ccnc4cc(Cl)ccc34)O[C@@H]3O[C@@]4(C)CC[C@@H]1[C@@]23OO4` (some centres undefined), the Activity in data set [25] is recorded as 95.2%; in data set [26] it was 78.6%. Further, the IC50 in data set [15] is 560000 nM. The “inhibition (INH)” value in [27] is recorded as 71.9%.
For `Cc1ccc(Nc2nnc(-c3cc(-c4ccc(Br)cc4)nc4ccccc34)o2)cc1`, the IC50 in [17] worked out at 1210 nM; in data set [18] it was 50 nM; in data set [19], 540 nM.
Turning to `Cc1c(Cl)ccc2cc(/C=C/C(=O)c3ccc(Br)cc3)c(Cl)nc12`, the Time in [28] stood at 11.8 days. For the same compound, the figures for the IC50 in [29] and in data set [30] were 38 nM and below 50 nM, respectively.
For the compound `COC(=O)[C@H](Cc1c[nH]c2ccccc12)NC(=O)CSc1ccnc2cc(Cl)ccc12`, in data set [15], the inhibition is 61.1%. Moreover, in data set [16], the Time was 24.6 days.
Regarding `O=S(=O)(Nc1cccc2cccnc12)c1cccc2cccnc12`, the IC50 in [10], in [32] and in data set [33] was 1230 nM each time. Moreover, the “fold change (FC)” value in [31] came to 0.23.
Consider `Cc1cc(Nc2ccc(NC(=O)c3ccc(Nc4ccnc5ccccc45)cc3)cc2)nc(N)n1`, for which the IC50 in [34], in data set [35], in data set [36] and in data set [37] was 1700 nM in each case.
Take `CN1CCN(CCNCc2ccc(-c3cc(-c4ccc(CNCCN5CCN(C)CC5)cc4)c4ccccc4n3)cc2)CC1`: the IC50 came to 130 nM in data set [29] and 2420 nM in data set [3]. The “Ratio IC50” value in [38] stood at 20.
Regarding `CCOc1ccc(Nc2cc(C)nc3ccc(Cl)cc23)cc1`, the Activity in data set [14] was determined as 8%.
